In US20060069132A1, “Azolecarboxamide herbicides” (priority 2004, published 2006):
Where two headings read alike, the source gives them in different places.

How the values were obtained:
barnyardgrass = assay: Test B pre-/postemergence herbicide test; format: in vivo, Echinochloa crus-galli; conditions: Echinochloa crus-galli; for pest or weed control at 125 g/ha: 125 g ai/ha; for pest or weed control at 500 g/ha: 500 g ai/ha
Procedure, shortened: (§1)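 Visual rating, 0 (no effect) to 100 (complete control), versus untreated controls after 13–15 d in greenhouse. Pre- and postemergence applications (postemergence plants 2–18 cm, 1–4 leaves); flooded paddy arm at 2-leaf stage. Compounds in non-phytotoxic solvent plus surfactant.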

Surinam grass = assay: Test B pre-/postemergence herbicide test; format: in vivo, Urochloa decumbens; conditions: Urochloa decumbens; for pest or weed control at 125 g/ha: 125 g ai/ha; for pest or weed control at 500 g/ha: 500 g ai/ha
Procedure, shortened: (§2)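 Test chemicals in a non-phytotoxic solvent mixture with surfactant were applied preemergence to seeded species and postemergence to plants 2-18 cm tall (1- to 4-leaf stage); rice and barnyardgrass were also tested in a flooded paddy at the 2-leaf stage. Visual rating versus controls after 13-15 days in greenhouse, scale 0 (no effect) to 100 (complete control).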

cocklebur = assay: Test B pre-/postemergence herbicide test; format: in vivo, Xanthium strumarium; conditions: Xanthium strumarium; for pest or weed control at 125 g/ha: 125 g ai/ha; for pest or weed control at 500 g/ha: 500 g ai/ha
Procedure, shortened: as §1

corn = assay: Test B pre-/postemergence herbicide test; format: in vivo, Zea mays; conditions: Zea mays
Procedure, shortened: as §2

large crabgrass = assay: Test B pre-/postemergence herbicide test; format: in vivo, Digitaria sanguinalis; conditions: Digitaria sanguinalis; for pest or weed control at 125 g/ha: 125 g ai/ha; for pest or weed control at 500 g/ha: 500 g ai/ha
Procedure, shortened: as §2

giant foxtail = assay: Test B pre-/postemergence herbicide test; format: in vivo, Setaria faberi; conditions: Setaria faberi, 336 h; for pest or weed control at 125 g/ha: 125 g ai/ha; for pest or weed control at 500 g/ha: 500 g ai/ha
Procedure, shortened: as §2

lambsquarters = assay: Test B pre-/postemergence herbicide test; format: in vivo, Chenopodium album; conditions: Chenopodium album, 336 h; for pest or weed control at 125 g/ha: 125 g ai/ha; for pest or weed control at 500 g/ha: 500 g ai/ha
Procedure, shortened: as §2

morningglory = assay: Test B pre-/postemergence herbicide test; format: in vivo, Ipomoea coccinea; conditions: Ipomoea, 336 h; for pest or weed control at 125 g/ha: 125 g ai/ha; for pest or weed control at 500 g/ha: 500 g ai/ha
Procedure, shortened: as §1

pigweed = assay: Test B pre-/postemergence herbicide test; format: in vivo, Amaranthus retroflexus; conditions: Amaranthus retroflexus, 336 h; for pest or weed control at 125 g/ha: 125 g ai/ha; for pest or weed control at 500 g/ha: 500 g ai/ha
Procedure, shortened: as §2

velvetleaf = assay: Test B pre-/postemergence herbicide test; format: in vivo, Abutilon theophrasti; conditions: Abutilon theophrasti, 336 h; for pest or weed control at 125 g/ha: 125 g ai/ha; for pest or weed control at 500 g/ha: 500 g ai/ha
Procedure, shortened: as §2

blackgrass = assay: Test B postemergence herbicide test; format: in vivo, Alopecurus myosuroides; conditions: Alopecurus myosuroides, post-emergence, 336 h, postemergence, visual rating, scale 0 (no effect) to 100 (complete control), read-out: Blackgrass plant response rating
Procedure, shortened: (§3)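 Visual ratings, 0 (no effect) to 100 (complete control), made versus controls after 13–15 d greenhouse. Paddy plants treated at 2-leaf stage; postemergence plants at 1- to 4-leaf stage, 2–18 cm tall.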

wild oat = assay: Test B postemergence herbicide test; format: in vivo, Avena fatua; conditions: Avena fatua, post-emergence, 336 h, postemergence, visual rating, scale 0 (no effect) to 100 (complete control), read-out: Oat, Wild plant response rating
Procedure, shortened: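 Plants grow to 1- to 4-leaf stage (2–18 cm) for postemergence spraying, or to 2-leaf stage for the paddy test. Formulated compound is applied. Greenhouse holding lasts 13–15 days. Response is scored visually relative to controls, 0 no effect to 100 complete control; a dash means no result.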

rice = assay: Test B flooded paddy test; format: in vivo, Oryza sativa; conditions: Oryza sativa, 336 h, 1000 g ai/ha, visual rating, scale 0 to 100 (0 no effect, 100 complete control), 13 to 15 days, read-out: Rice plant response rating
Procedure, shortened: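 Paddy species grown to the 2-leaf stage under flooding; blackgrass sprayed postemergence at 2–18 cm (1- to 4-leaf stage). Plants kept in a greenhouse for 13 to 15 days, then visually rated against controls on 0 (no effect) to 100 (complete control).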

[1] = test system: small flower umbrella sedge; assay: Test B flooded paddy test; format: in vivo, Cyperus difformis; conditions: Cyperus difformis, 336 h, 1000 g ai/ha, visual rating, scale 0 to 100 (0 no effect, 100 complete control), 13 to 15 days, read-out: Sedge, Umbrella plant response rating
Procedure, shortened: as §3

ducksalad = assay: Test B flooded paddy test; format: in vivo, Heteranthera limosa; conditions: Heteranthera limosa, 336 h, 1000 g ai/ha, visual rating, scale 0 to 100 (0 no effect, 100 complete control), 13 to 15 days, read-out: Ducksalad plant response rating
Procedure, shortened: as §3

[2] = post-emergence, postemergence, visual rating, scale 0 (no effect) to 100 (complete control), read-out: Barnyardgrass plant response rating
[3] = post-emergence, postemergence, visual rating, scale 0 (no effect) to 100 (complete control), read-out: Surinam Grass plant response rating
[4] = post-emergence, postemergence, visual rating, scale 0 (no effect) to 100 (complete control), read-out: Cocklebur plant response rating
[5] = post-emergence, postemergence, visual rating, scale 0 (no effect) to 100 (complete control), read-out: Crabgrass, Large plant response rating
[6] = post-emergence, postemergence, visual rating, scale 0 (no effect) to 100 (complete control), read-out: Foxtail, Giant plant response rating
[7] = post-emergence, postemergence, visual rating, scale 0 (no effect) to 100 (complete control), read-out: Lambsquarters plant response rating
[8] = post-emergence, postemergence, visual rating, scale 0 (no effect) to 100 (complete control), read-out: Morningglory plant response rating
[9] = post-emergence, postemergence, visual rating, scale 0 (no effect) to 100 (complete control), read-out: Pigweed plant response rating
[10] = post-emergence, postemergence, visual rating, scale 0 (no effect) to 100 (complete control), read-out: Velvetleaf plant response rating

With `CCn1nc(C(C)(C)C)cc1C(=O)Nc1cc(C(=O)N(C)C)ccn1` [Compound 156, 2-[[[3-(1,1-dimethylethyl)-1-ethyl-1H-pyrazol-5-yl]carbonyl]amino]-N,N-dimethyl-4-pyridinecarboxamide] the pest or weed control at 125 g/ha (barnyardgrass; [2]) was 10%, the pest or weed control at 500 g/ha (barnyardgrass; [2]) was 40% and the pest or weed control at 500 g/ha (barnyardgrass; pre-emergence, visual rating 0-100, 0 no effect, 100 complete control, read-out: Plant response rating, Barnyardgrass) was 100%. The pest or weed control at 125 g/ha (barnyardgrass; pre-emergence, preemergence, 0 to 100 scale, 0 is no effect, 100 is complete control, read-out: Plant response rating, Barnyardgrass) was 100%, the pest or weed control at 125 g/ha (Surinam grass; [3]) was 10% and the pest or weed control at 500 g/ha (Surinam grass; [3]) was 20%. The pest or weed control at 500 g/ha (Surinam grass; pre-emergence, visual rating 0-100, 0 no effect, 100 complete control, read-out: Plant response rating, Surinam Grass) was 100%, the pest or weed control at 125 g/ha (Surinam grass; pre-emergence, preemergence, 0 to 100 scale, 0 is no effect, 100 is complete control, read-out: Plant response rating, Surinam Grass) was 90% and the pest or weed control at 125 g/ha (cocklebur; [4]) was 40%. It also gave a pest or weed control at 500 g/ha (cocklebur; [4]) of 80%, a pest or weed control at 500 g/ha (cocklebur; pre-emergence, visual rating 0-100, 0 no effect, 100 complete control, read-out: Plant response rating, Cocklebur) of 100% and a pest or weed control at 125 g/ha (cocklebur; pre-emergence, preemergence, 0 to 100 scale, 0 is no effect, 100 is complete control, read-out: Plant response rating, Cocklebur) of 100%. For the same compound, the plant injury at 125 g/ha (corn; post-emergence, postemergence, 125 g ai/ha, visual rating, scale 0 (no effect) to 100 (complete control), read-out: Corn plant response rating) was 0%, the plant injury at 500 g/ha (corn; post-emergence, postemergence, 500 g ai/ha, visual rating, scale 0 (no effect) to 100 (complete control), read-out: Corn plant response rating) was 10% and the Corn plant response rating (crop injury, 0 = no effect, 100 = complete kill) at 500 g/ha (corn; pre-emergence, 500 g ai/ha, visual rating 0-100, 0 no effect, 100 complete control) was 80%. It also gave a Corn plant response rating (crop injury, 0 = no effect, 100 = complete kill) at 125 g/ha (corn; pre-emergence, preemergence, 125 g ai/ha, 0 to 100 scale, 0 is no effect, 100 is complete control) of 40%, a pest or weed control at 125 g/ha (large crabgrass; [5]) of 10% and a pest or weed control at 500 g/ha (large crabgrass; [5]) of 10%. For the same compound, the pest or weed control at 500 g/ha (large crabgrass; pre-emergence, visual rating 0-100, 0 no effect, 100 complete control, read-out: Plant response rating, Crabgrass, Large) was 100%, the pest or weed control at 125 g/ha (large crabgrass; pre-emergence, preemergence, 0 to 100 scale, 0 is no effect, 100 is complete control, read-out: Plant response rating, Crabgrass, Large) was 90% and the pest or weed control at 125 g/ha (giant foxtail; [6]) was 20%. The pest or weed control at 500 g/ha (giant foxtail; [6]) was 40%, the pest or weed control at 500 g/ha (giant foxtail; pre-emergence, visual rating 0-100, 0 no effect, 100 complete control, read-out: Plant response rating, Foxtail, Giant) was 100% and the pest or weed control at 125 g/ha (giant foxtail; pre-emergence, preemergence, 0 to 100 scale, 0 is no effect, 100 is complete control, read-out: Plant response rating, Foxtail, Giant) was 100%. The pest or weed control at 125 g/ha (lambsquarters; [7]) was 60%, the pest or weed control at 500 g/ha (lambsquarters; [7]) was 80% and the pest or weed control at 500 g/ha (lambsquarters; pre-emergence, visual rating 0-100, 0 no effect, 100 complete control, read-out: Plant response rating, Lambsquarters) was 100%. For the same compound, the pest or weed control at 125 g/ha (lambsquarters; pre-emergence, preemergence, 0 to 100 scale, 0 is no effect, 100 is complete control, read-out: Plant response rating, Lambsquarters) was 100%, the pest or weed control at 125 g/ha (morningglory; [8]) was 20% and the pest or weed control at 500 g/ha (morningglory; [8]) was 50%. The pest or weed control at 500 g/ha (morningglory; pre-emergence, visual rating 0-100, 0 no effect, 100 complete control, read-out: Plant response rating, Morningglory) was 100%, the pest or weed control at 125 g/ha (morningglory; pre-emergence, preemergence, 0 to 100 scale, 0 is no effect, 100 is complete control, read-out: Plant response rating, Morningglory) was 60% and the pest or weed control at 125 g/ha (pigweed; [9]) was 30%. It also gave a pest or weed control at 500 g/ha (pigweed; [9]) of 60%, a pest or weed control at 500 g/ha (pigweed; pre-emergence, visual rating 0-100, 0 no effect, 100 complete control, read-out: Plant response rating, Pigweed) of 100% and a pest or weed control at 125 g/ha (pigweed; pre-emergence, preemergence, 0 to 100 scale, 0 is no effect, 100 is complete control, read-out: Plant response rating, Pigweed) of 100%. It also gave a pest or weed control at 125 g/ha (velvetleaf; [10]) of 60%, a pest or weed control at 500 g/ha (velvetleaf; [10]) of 90% and a pest or weed control at 500 g/ha (velvetleaf; pre-emergence, visual rating 0-100, 0 no effect, 100 complete control, read-out: Plant response rating, Velvetleaf) of 100%. It also gave a pest or weed control at 125 g/ha (velvetleaf; pre-emergence, preemergence, 0 to 100 scale, 0 is no effect, 100 is complete control, read-out: Plant response rating, Velvetleaf) of 100%, a pest or weed control at 125 g/ha (blackgrass; 125 g ai/ha) of 30% and a pest or weed control at 500 g/ha (blackgrass; 500 g ai/ha) of 60%. The pest or weed control at 125 g/ha (wild oat; 125 g ai/ha) was 40%, the pest or weed control at 500 g/ha (wild oat; 500 g ai/ha) was 40% and the plant injury at 1000 g/ha (rice) was 90%. It also gave a pest or weed control at 1000 g/ha [1] of 90% and a pest or weed control at 1000 g/ha (ducksalad) of 100%.
